Values after ≈ are worked out from the molar mass of the structure shown. Like-named read-outs stand apart in the source and are kept apart here. Residues, ends and D or L forms follow the SMILES beside them.
How the values were obtained:
hDHFR [1] = target: T1, hDHFR (Homo sapiens, UniProt P00374); experiment: In vitro DHFR inhibition assay (DHFR assay kit, absorbance at 340 nm); type: biochemical
T1 construct: purchased Sigma CS0340
T1 sequence (P00374 1-187): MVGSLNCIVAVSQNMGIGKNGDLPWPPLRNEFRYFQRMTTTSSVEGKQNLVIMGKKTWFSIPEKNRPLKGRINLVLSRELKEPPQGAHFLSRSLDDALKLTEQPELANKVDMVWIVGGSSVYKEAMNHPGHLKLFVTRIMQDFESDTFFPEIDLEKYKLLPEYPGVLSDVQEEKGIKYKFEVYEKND
Description: The activity of the designed peptides against hDHFR was evaluated by measuring the conversion of dihydrofolic acid to tetrahydrofolic acid in the presence of the test peptide using […].
The dihydrofolate reductase inhibition assay was performed using DHFR assay kit (Sigma product code CS0340) according to the reported protocol. All the dilutions were made in assay buffer, pH 7.5. 10 mM stock solutions of dihydrofolic acid and NADPH in assay buffer were prepared. Stock solutions of the test peptides with different concentrations were prepared in DMSO, and an amount of 20 μL of each was taken to attain final concentration of 10^−9, 10^−8, 10^−7, 10^−6, 10^−5, and 10^−4 M in the respective wells of 96-well plate containing assay buffer. An amount of 0.1 unit of DHFR as supplied in the kit was diluted, and an amount of 20 μL of its 3 × 10^−3 unit was used in each reaction. Each well of the 96-well plate was charged with 157.8 μL of assay buffer. […] Percentage inhibition of enzymatic activity was calculated after nullifying the effects of NADPH, folate, and solvent. IC50 was calculated by plotting a graph between percentage inhibition and the corresponding concentration of the peptide.

hDHFR [2] = target: T1, hDHFR; experiment: Isothermal titration calorimetry (ITC); type: binding; settings: Table 2, read-out: Ka (converted)
From the text: The binding of peptide 2 with hDHFR was further determined using isothermal titration calorimetry (ITC). ITC is considered as one of the most precise techniques to measure the affinity between a macromolecule and a small molecule. Since it measures the heat absorbed or released during complexation, it allows simultaneous determination of all binding parameters with respect to the binding constant (K), enthalpy (ΔH), and entropy (ΔS) in a single experiment. The solution of peptide 2 (in the syringe) was injected into the DHFR enzyme solution taken in the sample cell. In one experiment, 20 consecutive injections of 2 μL of 250 μM peptide were given to the sample cell. Upon each titration, the amount of heat released or absorbed was measured and used to determine the association constant (Ka), binding enthalpy (ΔH), and entropy (ΔS).

A549 cells = settings: 48 hrs, MTT; for effect on cell viability of A549 cells: increasing concentrations
Description: Cell viability was measured using 3-(4,5-Dimethylthiazol- 2-yl)-2,5- Diphenyltetrazolium Bromide (MTT) assay. […] Following that, 20 µL of 5 mg/ml of MTT reagent was added in a total volume of 200 µl and incubated for 2 hours. The culture media was removed and the formazan crystals so formed were dissolved in 200 µl of dimethyl sulfoxide (DMSO). Absorbance was measured at 570 nm (with 660 nm reference wavelength) using Tecan plate reader (Infinite M200 Pro). Each individual experiment was repeated at least thrice. Relative cell viability was expressed as a percentage relative to untreated control cells.

[3] = six concentrations 10^−4 to 10^−9 M, assay buffer pH 7.5, read-out: IC50 against hDHFR

Row | Compound | IC50 (hDHFR [1]) | IC50 (hDHFR [1]; [3]) | further results
1 | CSCC[C@H](NC(=O)[C@H](Cc1ccccc1)NC(=O)[C@H](CO)NC(=O)[C@@H](N)Cc1ccc(O)cc1)C(=O)N[C@@H](CC(C)C)C(=O)O [Peptide 11, Tyr-Ser-Phe-Met-Leu] (H-YSFML-OH) | 0.08 µM | – | –
2 | CSCC[C@H](NC(=O)[C@H](Cc1ccc(O)cc1)NC(=O)[C@@H](N)Cc1ccccc1)C(=O)NCC(=O)N[C@@H](CC(C)C)C(=O)O [Peptide 9, Phe-Tyr-Met-Gly-Leu] (H-FYMGL-OH) | > 80 µM | – | –
3 | CSCC[C@H](NC(=O)[C@@H](N)Cc1ccccc1)C(=O)N[C@@H](Cc1ccc(O)cc1)C(=O)N[C@@H](CC(C)C)C(=O)O [Peptide 2, Phe-Met-Tyr-Leu] (H-FMYL-OH) | – | 0.13 µM | Kd (hDHFR [2]): 0.909 µM; IC50 in A549 cells (A549 cells): 47 µg/mL (≈ 82.1 µM); IC50 (A549 cells; read-out: IC50 in A549 cells): 82 µM
4 | CSCC[C@H](NC(=O)[C@H](Cc1ccccc1)NC(=O)[C@@H](N)Cc1ccc(O)cc1)C(=O)N[C@@H](CC(C)C)C(=O)O [Peptide 1, Tyr-Phe-Met-Leu] (H-YFML-OH; N-terminus assumed) | > 100 µM | – | –
5 | CSCC[C@H](NC(=O)[C@H](Cc1ccccc1)NC(=O)[C@@H](N)Cc1ccc(O)cc1)C(=O)N[C@@H](CC(C)C)C(=O)NCC(=O)O [Peptide 7, Tyr-Phe-Met-Leu-Gly] (H-YFMLG-OH) | > 100 µM | – | –
6 | CSCC[C@H](NC(=O)[C@H](Cc1ccc(O)cc1)NC(=O)[C@@H](N)Cc1ccccc1)C(=O)NCC(=O)O [Peptide 3, Phe-Tyr-Met-Gly] (H-FYMG-OH; N-terminus assumed) | – | 5.6 µM | effect on cell viability of A549 cells (A549 cells): did not affect their cell viability
7 | CSCC[C@H](N)C(=O)N[C@@H](Cc1ccccc1)C(=O)N[C@@H](Cc1ccc(O)cc1)C(=O)NCC(=O)N[C@@H](CC(C)C)C(=O)O [Peptide 10, Met-Phe-Tyr-Gly-Leu] (H-MFYGL-OH) | – | > 100 µM | –
8 | CSCC[C@H](NC(=O)[C@@H](N)Cc1ccc(O)cc1)C(=O)N[C@@H](Cc1ccccc1)C(=O)N[C@@H](CO)C(=O)N[C@@H](CC(C)C)C(=O)O [Peptide 12, Tyr-Met-Phe-Ser-Leu] (H-YMFSL-OH) | > 90 µM | – | –
9 | CSCC[C@H](N)C(=O)N[C@@H](Cc1ccc(O)cc1)C(=O)N[C@@H](CO)C(=O)N[C@@H](CC(C)C)C(=O)O [Peptide 6, Met-Tyr-Ser-Leu] (H-MYSL-OH; N-terminus assumed) | – | 8 µM | –
10 | CSCC[C@H](NC(=O)[C@@H](N)Cc1ccccc1)C(=O)N[C@@H](Cc1ccc(O)cc1)C(=O)N[C@@H](CC(C)C)C(=O)NCC(=O)O [Peptide 8, Phe-Met-Tyr-Leu-Gly] (H-FMYLG-OH) | – | > 100 µM | –
11 | CSCC[C@H](NC(=O)[C@@H](N)Cc1ccc(O)cc1)C(=O)N[C@@H](CO)C(=O)N[C@@H](CC(C)C)C(=O)O [Peptide 5, Tyr-Met-Ser-Leu] (H-YMSL-OH; N-terminus assumed) | > 100 µM | – | –
12 | CSCC[C@H](N)C(=O)N[C@@H](Cc1ccccc1)C(=O)N[C@@H](Cc1ccc(O)cc1)C(=O)NCC(=O)O [Peptide 4, Met-Phe-Tyr-Gly] (H-MFYG-OH; N-terminus assumed) | – | > 90 µM | effect on cell viability of A549 cells (A549 cells): did not affect their cell viability
